Experimental data published in patent US20090075925A1, “Methods and Compositions Related to APOBEC-1 Expression” (priority 2006, published 2009).
Read-outs that look alike come from different tables or passages of the source.

Tests used:
[1] = system: PKA; conditions: cited from earlier work
[2] = system: apoB mRNA editing
Experimental: Protein phosphatase inhibitor studies. […] The compounds' effects on apoB mRNA editing were evaluated by RT-PCR and poisoned-primer extension analysis (Sowden et al. Rna 2:274-88 (1996)). The effect of 470 nM cantharidin on ACF subcellular distribution was investigated by treating primary hepatocyte cultures for 6 hours followed by nuclear and cytoplasmic extract preparation.
It was reasoned that if phosphorylation of ACF regulated editing activity, treatment of rat primary hepatocytes with phosphatase inhibitors might stimulate apoB mRNA editing activity. […] The experiments (n=4-6) were done over a number of months and therefore represent primary hepatocytes from several rats.
Editing activity was quantified from primary hepatocytes incubated with 10-100-times the EC50 of the various […] (Calbiochem).

[3] = system: ACF; assay: ACF phosphorylation in 32P-labeled rat primary hepatocytes (ACF immunoprecipitation, autoradiography); assay type: cell-based; conditions: 32Pi 500 μCi/ml, 6 hours
Experimental: In vivo phosphorylation of ACF. In vivo ^32P labeling was performed by intraperitoneal injection of rats with 12.5 mCi of orthophosphoric acid (10 mCi/ml ^32PO4; NEN, Boston, Mass.) buffered with 50 mM HEPES, pH 7.0 and 150 mM NaCl. After 4 hours, rats were sacrificed and hepatic cytoplasmic and nuclear extracts prepared. Primary hepatocyte cultures in 60 mm dishes were incubated in phosphate-free Minimum Essential Eagle Media (Sigma) containing 0.1 nM porcine insulin for 6 hours and subsequently in fresh media containing 10 nM insulin (equivalent to that seen in post-prandial serum) or 0.45% to 0.9% ethanol (AAPER Alcohol and Chemical Co., Shelbyville, Ky.) (Van Mater et al. (1998), Yang et al. (2000)) plus 2.0 mCi orthophosphoric acid. Cultures were labeled for 4 hours prior to extract preparation.
To evaluate the effect of phosphatase inhibition on ACF phosphorylation, cultures were pre-incubated for 2 hours with 470 nM cantharadin in phosphate-free Waymouth's media and subsequently supplemented with 0.5 mCi ^32pO4 and incubated for an additional 4 hours. Cultures were harvested and subcellular extracts prepared.
Immunological techniques. […] For immunoprecipitation analyses all radiolabeled extracts were adjusted to 5 mM MgCl2 and digested with 100 units of DNase I (Promega), RNase T1 (Roche, Ind.), and RNase A (Sigma) for 1 hour on ice to remove radiolabeled nucleic acid. Where applicable, extracts were incubated overnight with ACF CT antibody at 4° C. and subsequently reacted with Protein A-agarose (Oncogene Research Products, Boston, Mass.) pre-washed with 1×TBS/10 mM NaF. The immuno-absorbed material was washed 3 times with 1×TBS/10 mM NaF, 3 times with 1×TBS/1 M NaCl (Yang et al. (1997)) and lastly 3 times with 1×TBS. Immuno-absorbed material to be treated with alkaline phosphatase was washed with 50 mM Tris, pH 8.4, 1 mM MgCl2, 0.1 mM ZnCl2, 25% glycerol and then incubated with 5 U CIAP for 1 hour at 30° C. and then washed 6 times with 1×TBS. ACF-antibody complexes were eluted with 3 M sodium thiocyanate, acetone precipitated and analyzed by 10.5% SDS-PAGE followed by autoradiography and/or western blotting with ACF NT antibody. For ACF immunoprecipitation from gradient fractions an equal volume of pooled gradient fractions from sedimentation zones of interest were reacted with sub-saturating amounts of ACF CT antibody to ensure that the recovery of phospho-ACF was not simply a reflection of ACF abundance in each zone.
To evaluate this, cytoplasmic and nuclear extracts from radiolabeled primary hepatocyte cultures were sedimented through 10%-50% glycerol gradients. […] The ACF immunoprecipitates were resolved by SDS-PAGE, transferred to nitrocellulose, autoradiographed and subjected to phosphorimager scanning to detect and quantify radiolabeled proteins prior to immunoblotting with the ACF NT antibody.

[4] = system: PKC; conditions: cited from earlier work
[5] = system: PKA; conditions: cited from earlier work; remark: listed apart in the source
[6] = system: ACF64; assay: ACF phosphorylation in 32P-labeled McArdle cells; assay type: cell-based, rat; conditions: 6 hour
Experimental: Numerous kinase inhibitors were evaluated but only those acting on Protein Kinase C affected editing activity. […] Cell extracts were immunoprecipitated with the ACF C-terminal specific antibody and analyzed by PAGE and autoradiography (FIG. 23). […] However, at and above the IC50 of PKC, phosphorylation of ACF64 was inhibited by 90% and 100%.

[7] = system: PKC; conditions: cited from earlier work; remark: listed apart in the source
[8] = 10 mg/kg per day IP, 26 day period; cited from earlier work

## Nc1ncnc2c1nc(Sc1ccc(Cl)cc1)n2[C@@H]1O[C@@H]2COP(=O)(O)O[C@H]2[C@H]1O [8-cpt cAMP]
[1]
  EC50: 2 µM
[2]; 2 μM
  apoB mRNA editing, Mean: 61.2%
[2]; 20 μM
  apoB mRNA editing, Mean: 59.3%
[2]; 200 μM
  apoB mRNA editing, Mean: 59.6%

## NCCNS(=O)(=O)c1cccc2c(Cl)cccc12 [A3]
[3]
  concentration at which ACF phosphorylation was inhibited: ≥ 40 µM
[4]
  IC50: 47 µM
[5]
  IC50: 4 µM
[6]; above the IC50 of PKC (120 μM)
  inhibition of ACF64 phosphorylation: 100%
[6]; at the IC50 of PKA (4 μM)
  decrease of ACF phosphorylation relative to untreated cells: 20%
[6]; at the IC50 of PKC (40 μM)
  inhibition of ACF64 phosphorylation: 90%
[2]
  effect on editing in hepatocytes: stimulated

## CC(C)[C@H]1C(=O)N[C@H](CO)Cc2c[nH]c3cccc(c23)N1C [Indolactam V]
[2]; 12 μM
  apoB mRNA editing, Mean: 92.47%
[2]; 12 μM, SEM 4.8, n=2
  editing activity compared to solvent treated controls (from 65%): 92%
[2]; 120 μM
  apoB mRNA editing, Mean: 91.57%
[2]; concentration not given
  effect on apoB mRNA editing: stimulated editing
[7]
  EC50: 0.2 µM

## leptin: protein product of the ob gene, 16 kDa circulating hormone
[8]
  decrease in weight at the conclusion of the study: ~20%
